From ChEMBL document CHEMBL5154739, “Structure-activity relationships of N-terminal variants of peptidomimetic tissue transglutaminase inhibitors” (Eur J Med Chem, 2022)
pEC50, pKi: −log10 of the molar value. Active and inactive are the calls of the source. The rule behind the calls is not given here.

Assays:
[1] = target: T1, Protein-glutamine gamma-glutamyltransferase (Homo sapiens) (UniProt P21980); assay: (§1) Inhibition of TG2 (unknown origin) using Cbz-Glu(gamma-p-nitrophenyl ester)Gly (AL5) as substrate and measured by colorimetric assay
T1 sequence (whole entry): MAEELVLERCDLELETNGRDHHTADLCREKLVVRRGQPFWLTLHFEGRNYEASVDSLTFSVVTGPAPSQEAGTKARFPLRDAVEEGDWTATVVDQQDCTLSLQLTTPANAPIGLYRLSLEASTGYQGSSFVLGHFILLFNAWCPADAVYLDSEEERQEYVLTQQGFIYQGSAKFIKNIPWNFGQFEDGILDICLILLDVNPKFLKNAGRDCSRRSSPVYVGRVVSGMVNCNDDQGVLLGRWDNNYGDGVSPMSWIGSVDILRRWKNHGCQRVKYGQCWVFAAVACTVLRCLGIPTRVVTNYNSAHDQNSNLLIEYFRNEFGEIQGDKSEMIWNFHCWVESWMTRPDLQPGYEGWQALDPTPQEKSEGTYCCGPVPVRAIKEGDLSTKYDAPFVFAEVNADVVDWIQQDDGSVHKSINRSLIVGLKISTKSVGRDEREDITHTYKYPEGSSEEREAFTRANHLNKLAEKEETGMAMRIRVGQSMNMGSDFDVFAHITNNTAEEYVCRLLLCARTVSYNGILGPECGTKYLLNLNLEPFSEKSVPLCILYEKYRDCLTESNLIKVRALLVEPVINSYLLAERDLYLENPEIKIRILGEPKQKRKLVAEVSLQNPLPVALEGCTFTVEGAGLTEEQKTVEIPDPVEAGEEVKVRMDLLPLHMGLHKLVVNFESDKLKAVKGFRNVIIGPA

[2] = target: T1, Protein-glutamine gamma-glutamyltransferase (Homo sapiens); assay: Inhibition of TG2 (unknown origin) using Cbz-Glu(gamma-p-nitrophenyl ester)Gly (AL5) as substrate assessed as Kinact/Ki ratio and measured by colorimetric assay
P-gp [3] = assay: Substrate activity at P-gp in dog MDCK cells assessed as apparent permeability across apical to basolateral membrane; format: ADME, cell-based, Canis lupus familiaris; settings: MDCK-MDR1
MDR1 (P-gp) [4] = assay: Efflux ratio of apparent permeability in dog MDCK-MDR1 cells; format: ADME, cell-based, Canis lupus familiaris
[5] = Half-life in plasma (unknown origin); format: ADME, cell-free
MDR1 (P-gp) [6] = assay: Apparent permeability from basolateral to apical side in dog MDCK-MDR1 cells; format: ADME, cell-based, Canis lupus familiaris
P-gp [7] = assay: Substrate activity at P-gp in dog MDCK cells assessed as apparent permeability across basolateral to apical membrane; format: ADME, cell-based, Canis lupus familiaris; settings: MDCK-MDR1
[8] = Plasma protein binding (unknown origin); format: ADME, cell-free; settings: read-out: PPB (converted)
[9] = Plasma protein binding (unknown origin) assessed as drug recovery; format: ADME, cell-free; settings: read-out: Drug recovery
P-gp [10] = assay: Substrate activity at P-gp in dog MDCK cells assessed as efflux ratio; format: ADME, cell-based, Canis lupus familiaris; settings: MDCK-MDR1
MDR1 (P-gp) [11] = assay: Apparent permeability from apical to basolateral side in dog MDCK-MDR1 cells; format: ADME, cell-based, Canis lupus familiaris
[12] = Anti-invasion activity against human SCC-13 cells assessed as inhibition of invasion incubated for 18 hrs by matrigel trans well plate assay; format: functional, cell-based; settings: SCC-13, 18 h
[13] = target: T2, Protein-glutamine gamma-glutamyltransferase (Homo sapiens, UniProt P21980); assay: as §1
T2 sequence (P21980 whole entry): T1 sequence (whole entry)

[14] = target: T1, Protein-glutamine gamma-glutamyltransferase (Homo sapiens); assay: Inhibition of GTP binding to TG2 (unknown origin) measured by GTP Gamma-S-FL BODIPY assay

| Kinact [1] [min⁻¹] | Ratio [2] | Structure (SMILES) | other results |
| --- | --- | --- | --- |
| 0.6 | 214 10^3/M/min | C=CC(=O)NCCCC[C@H](NC(=O)CCc1ccccc1)C(=O)N1CCN(C(=O)c2cccc3ccccc23)CC1 | – |
| 0.63 | 7.1 10^3/M/min | C=CC(=O)NCCCC[C@H](NS(=O)(=O)c1ccccc1)C(=O)N1CCN(C(=O)c2cccc3ccccc23)CC1 | – |
| 2.1 | 352 10^3/M/min | C=CC(=O)NCCCC[C@H](NC(=O)Cc1ccccc1C)C(=O)N1CCN(C(=O)c2cccc3ccccc23)CC1 | Papp A→B (P-gp [3]): 3.2 ×10⁻⁶ cm/s; efflux ratio (MDR1 (P-gp) [4]): 51.6; half-life [5]: 9.47 h; Papp B→A (MDR1 (P-gp) [6]): 16.5 ×10⁻⁶ cm/s; Papp B→A (P-gp [7]): 3 ×10⁻⁶ cm/s; fraction unbound [8]: 0.15; recovery [9]: 93%; efflux ratio (P-gp [10]): 0.93; Papp A→B (MDR1 (P-gp) [11]): 0.32 ×10⁻⁶ cm/s |
| 5.3 | 295 10^3/M/min | C=CC(=O)NCCCC[C@H](NC(=O)Cc1ccccc1Cl)C(=O)N1CCN(C(=O)c2cccc3ccccc23)CC1 | pEC50 [12]: 4.04 |
| 0.41 | 20.1 10^3/M/min | C=CC(=O)NCCCC[C@H](NC(=O)c1cccc2ccccc12)C(=O)N1CCN(C(=O)c2cccc3ccccc23)CC1 | – |
| 0.21 | 39.6 10^3/M/min | C=CC(=O)NCCCC[C@H](NC(=O)CCCc1ccccc1)C(=O)N1CCN(C(=O)c2cccc3ccccc23)CC1 | – |
| 0.387 | – | C=CC(=O)NCC(=O)N1CCN(S(=O)(=O)c2cccc3c(N(C)C)cccc23)CC1 | pKi [13]: 5.88 |
| 0.24 | 12.7 10^3/M/min | C=CC(=O)NCCCC[C@H](NC(=O)c1ccncc1)C(=O)N1CCN(C(=O)c2cccc3ccccc23)CC1 | – |
| 0.57 | 22.6 10^3/M/min | C=CC(=O)NCCCC[C@H](NS(C)(=O)=O)C(=O)N1CCN(C(=O)c2cccc3ccccc23)CC1 | pKi [13]: 3.60 |
| 1 | 100 10^3/M/min | C=CC(=O)NCCCC[C@H](NC(=O)Cc1ccccc1C(F)(F)F)C(=O)N1CCN(C(=O)c2cccc3ccccc23)CC1 | – |
| 0.65 | 65.1 10^3/M/min | C=CC(=O)NCCCC[C@H](NC(=O)C(C)C)C(=O)N1CCN(C(=O)c2cccc3ccccc23)CC1 | – |
| – | 508 10^3/M/min | C=CC(=O)NCCCC[C@H](NC(=O)Cc1ccccc1)C(=O)N1CCN(c2ccc([N+](=O)[O-])nc2)CC1 | – |
| 0.38 | 100 10^3/M/min | C=CC(=O)NCCCC[C@H](NC(=O)OCc1ccccc1)C(=O)N1CCN(S(=O)(=O)c2cccc3c(N(C)C)cccc23)CC1 | pKi [13]: 5.42; pEC50 [12]: 5.41 |
| 0.62 | 224 10^3/M/min | C=CC(=O)NCCCC[C@H](NC(=O)Cc1ccc(F)cc1F)C(=O)N1CCN(C(=O)c2cccc3ccccc23)CC1 | – |
| 0.08 | 131 10^3/M/min | C=CC(=O)NCCCC[C@H](NC(=O)Cc1ccc(Cl)c(Cl)c1)C(=O)N1CCN(C(=O)c2cccc3ccccc23)CC1 | – |
| 0.75 | 155 10^3/M/min | C=CC(=O)NCCCC[C@H](NC(=O)Cc1cccc(F)c1)C(=O)N1CCN(C(=O)c2cccc3ccccc23)CC1 | – |
| 1.02 | 96.6 10^3/M/min | C=CC(=O)NCCCC[C@H](NC(=O)C1CC1)C(=O)N1CCN(C(=O)c2cccc3ccccc23)CC1 | – |
| 0.41 | 14 10^3/M/min | C=CC(=O)NCCCC[C@H](NC(=O)OCc1ccccc1)C(=O)NCCOCCOCCNS(=O)(=O)c1cccc2c(N(C)C)cccc12 | pKi [13]: 4.54; pEC50 [12]: 4.70 |
| 0.3 | 290 10^3/M/min | C=CC(=O)NCCCC[C@H](NC(=O)Cc1cccc(Cl)c1)C(=O)N1CCN(C(=O)c2cccc3ccccc23)CC1 | – |
| 1.45 | 44.1 10^3/M/min | C=CC(=O)NCCCC[C@H](NC(C)=O)C(=O)N1CCN(C(=O)c2cccc3ccccc23)CC1 | – |
| 0.39 | 39.4 10^3/M/min | C=CC(=O)NCCCC[C@H](NC(=O)c1ccccc1F)C(=O)N1CCN(C(=O)c2cccc3ccccc23)CC1 | – |
| 0.23 | 14.9 10^3/M/min | C=CC(=O)NCCCC[C@H](NC(=O)C1C2CC3CC(C2)CC1C3)C(=O)N1CCN(C(=O)c2cccc3ccccc23)CC1 (stereo partly specified) | – |

| Kinact [1] [min⁻¹] | Ratio [2] | Structure (SMILES) | other results |
| --- | --- | --- | --- |
| 1.2 | 244 10^3/M/min | C=CC(=O)NCCCC[C@H](NC(=O)OCc1ccccc1)C(=O)N1CCN(C(=O)c2cccc3ccccc23)CC1 | pKi [13]: 5.32 |
| 0.18 | 11.5 10^3/M/min | C=CC(=O)NCCCC[C@H](NC(=O)c1nccn1C)C(=O)N1CCN(C(=O)c2cccc3ccccc23)CC1 | – |
| 0.29 | 36.5 10^3/M/min | C=CC(=O)NCCCC[C@H](NC(=O)c1ccc2ccccc2c1)C(=O)N1CCN(C(=O)c2cccc3ccccc23)CC1 | – |
| – | 391 10^3/M/min | C=CC(=O)NCCCC[C@H](NC(=O)Cc1ccccc1)C(=O)N1CCN(c2cccnc2)CC1 | – |
| 0.28 | 12.6 10^3/M/min | C=CC(=O)NCCCC[C@H](NC(=O)c1cncn1C)C(=O)N1CCN(C(=O)c2cccc3ccccc23)CC1 | pKi [13]: 4.65 |
| 0.53 | 103 10^3/M/min | C=CC(=O)NCCCC[C@H](NC(=O)CC)C(=O)N1CCN(C(=O)c2cccc3ccccc23)CC1 | – |
| 0.64 | 47.8 10^3/M/min | C=CC(=O)NCCCC[C@H](NC(=O)c1cccc(F)c1)C(=O)N1CCN(C(=O)c2cccc3ccccc23)CC1 | – |
| 0.64 | 66.7 10^3/M/min | C=CC(=O)NCCCC[C@H](NC(=O)CC(C)C)C(=O)N1CCN(C(=O)c2cccc3ccccc23)CC1 | – |
| 0.26 | 20.9 10^3/M/min | C=CC(=O)NCCCC[C@H](NC(=O)CC1CCCCC1)C(=O)N1CCN(C(=O)c2cccc3ccccc23)CC1 | – |
| 0.49 | 56.2 10^3/M/min | C=CC(=O)NCCCC[C@H](NC(=O)C(C)(C)C)C(=O)N1CCN(C(=O)c2cccc3ccccc23)CC1 | – |
| 1.4 | 299 10^3/M/min | C=CC(=O)NCCCC[C@H](NC(=O)Cc1ccccc1OC)C(=O)N1CCN(C(=O)c2cccc3ccccc23)CC1 | – |
| 0.9 | 55.4 10^3/M/min | C=CC(=O)NCCCC[C@H](NC(=O)c1ccc(F)cc1)C(=O)N1CCN(C(=O)c2cccc3ccccc23)CC1 | – |
| 3.1 | 310 10^3/M/min | C=CC(=O)NCCCC[C@H](NC(=O)Cc1ccccc1Br)C(=O)N1CCN(C(=O)c2cccc3ccccc23)CC1 | pEC50 [12]: 4.03 |
| 0.59 | 23.3 10^3/M/min | C=CC(=O)NCCCC[C@H](NC(=O)c1cccnc1)C(=O)N1CCN(C(=O)c2cccc3ccccc23)CC1 | – |
| 0.46 | 170 10^3/M/min | C=CC(=O)NCCCC[C@H](NC(=O)Cc1cccc(Cl)c1Cl)C(=O)N1CCN(C(=O)c2cccc3ccccc23)CC1 | – |
| 0.46 | 16 10^3/M/min | C=CC(=O)NCCCC[C@H](NC(=O)c1cn(C)cn1)C(=O)N1CCN(C(=O)c2cccc3ccccc23)CC1 | pKi [13]: 4.54 |
| 0.53 | 11.4 10^3/M/min | C=CC(=O)NCCCC[C@H](NS(=O)(=O)Cc1ccccc1)C(=O)N1CCN(C(=O)c2cccc3ccccc23)CC1 | – |
| 0.33 | 33.6 10^3/M/min | C=CC(=O)NCCCC[C@H](NC(=O)C1CCCCC1)C(=O)N1CCN(C(=O)c2cccc3ccccc23)CC1 | – |
| 0.83 | 31.1 10^3/M/min | C=CC(=O)NCCCC[C@H](NS(=O)(=O)CC)C(=O)N1CCN(C(=O)c2cccc3ccccc23)CC1 | – |
| 0.49 | 119 10^3/M/min | C=CC(=O)NCCCC[C@H](NC(=O)Cc1ccc(F)cc1)C(=O)N1CCN(C(=O)c2cccc3ccccc23)CC1 | – |
| 0.39 | 9.6 10^3/M/min | C=CC(=O)NCCCC[C@H](NC(=O)c1ccccn1)C(=O)N1CCN(C(=O)c2cccc3ccccc23)CC1 | – |

| Structure (SMILES) | Kinact [1] [min⁻¹] | Ratio [2] | other results |
| --- | --- | --- | --- |
| C=CC(=O)NCCCC[C@H](NC(=O)Cc1ccccc1F)C(=O)N1CCN(C(=O)c2cccc3ccccc23)CC1 | 0.46 | 443 10^3/M/min | Papp A→B (P-gp [3]): 2.2 ×10⁻⁶ cm/s; efflux ratio (MDR1 (P-gp) [4]): 61.7; inhibition [14]: Active; half-life [5]: 17.9 h; Papp B→A (MDR1 (P-gp) [6]): 18.2 ×10⁻⁶ cm/s; Papp B→A (P-gp [7]): 2.8 ×10⁻⁶ cm/s; fraction unbound [8]: 0.16; recovery [9]: 86%; pEC50 [12]: 4.11; efflux ratio (P-gp [10]): 1.3; Papp A→B (MDR1 (P-gp) [11]): 0.29 ×10⁻⁶ cm/s |
